“And” between values parts separate entries of the source, which are not always exact repeats. Equal entries are not always repeated. Where two headings read alike, the source gives them in different places.
Legend:
[1] = target: T1, BuChE from horse serum (Equus caballus, UniProt P81908); assay: biochemical
T1 construct: BuChE from horse serum (2.5 units/1 mL); purchased Sigma-Aldrich; host or cells: horse serum
Procedure: The activity against acetylcholinesterases from electric eel and butyrylcholinesterase from horse serum was determined in spectrophotometric Ellman’s assay.
The activity against cholinesterases was determined in spectrophotometric Ellman’s assay.
The reaction took place in 100 mM phosphate buffer, pH 8.0, containing 0.25 units of AChE or BuChE, 0.3 mmol 5,5′-dithio-bis-(2-nitrobenzoic) acid (DTNB) and 0.45 mmol acetylthiocholine or butyrylthiocholine as substrates. The tested compounds were incubated with the enzyme for 5 min at 25 °C prior to starting the reaction by adding the substrate.

[2] = target: T2, AChE from Electrophorus electricus (Electrophorus electricus, UniProt O42275); assay: Ellman's assay, AChE inhibition; type: biochemical
T2 construct: purchased Sigma-Aldrich
T2 sequence (O42275 24-633): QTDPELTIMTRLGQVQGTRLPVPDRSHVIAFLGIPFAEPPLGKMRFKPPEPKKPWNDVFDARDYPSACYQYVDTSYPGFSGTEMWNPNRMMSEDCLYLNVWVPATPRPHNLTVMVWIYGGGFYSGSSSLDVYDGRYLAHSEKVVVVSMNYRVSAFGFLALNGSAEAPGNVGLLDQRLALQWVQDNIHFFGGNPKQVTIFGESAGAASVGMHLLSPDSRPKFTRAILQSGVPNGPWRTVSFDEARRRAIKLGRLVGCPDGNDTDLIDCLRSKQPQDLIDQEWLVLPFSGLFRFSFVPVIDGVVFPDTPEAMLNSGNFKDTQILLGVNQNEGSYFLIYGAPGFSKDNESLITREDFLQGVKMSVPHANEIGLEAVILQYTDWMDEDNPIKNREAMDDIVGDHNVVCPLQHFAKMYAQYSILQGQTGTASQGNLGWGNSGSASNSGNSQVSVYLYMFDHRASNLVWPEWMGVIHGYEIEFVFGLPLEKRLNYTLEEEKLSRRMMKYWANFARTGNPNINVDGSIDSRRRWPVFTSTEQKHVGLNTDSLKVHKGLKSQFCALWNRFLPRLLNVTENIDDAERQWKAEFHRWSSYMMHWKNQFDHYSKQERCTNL

[3] = target: T2, AChE from Electrophorus electricus; details: Ellman's assay, compounds 7-9 ref 39, cited from earlier work
[4] = Ellman's assay, horse serum BuChE, pH 8.0, 25 °C, n.a.: not active, read-out: BuChE IC50
[5] = AChE IC50, Ellman's assay, electric eel AChE, pH 8.0, 25 °C
[6] = electric eel AChE, read-out: AChE IC50

T1 sequence (P81908 whole entry): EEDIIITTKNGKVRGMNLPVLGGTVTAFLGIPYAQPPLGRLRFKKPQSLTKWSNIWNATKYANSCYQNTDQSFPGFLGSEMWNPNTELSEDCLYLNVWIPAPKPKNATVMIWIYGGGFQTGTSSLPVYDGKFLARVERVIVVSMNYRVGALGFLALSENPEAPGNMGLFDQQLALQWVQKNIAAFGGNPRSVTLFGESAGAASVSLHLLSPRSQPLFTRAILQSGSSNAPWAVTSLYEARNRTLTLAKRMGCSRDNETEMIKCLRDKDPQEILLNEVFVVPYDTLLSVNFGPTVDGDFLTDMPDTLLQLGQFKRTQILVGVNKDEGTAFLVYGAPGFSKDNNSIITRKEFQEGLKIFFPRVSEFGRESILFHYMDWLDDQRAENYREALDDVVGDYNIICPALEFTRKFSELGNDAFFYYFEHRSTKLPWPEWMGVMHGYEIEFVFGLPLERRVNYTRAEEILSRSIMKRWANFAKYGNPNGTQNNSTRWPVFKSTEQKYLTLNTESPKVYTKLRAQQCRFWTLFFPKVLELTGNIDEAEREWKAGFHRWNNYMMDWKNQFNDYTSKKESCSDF

| SMILES | IC50 [2, 5] [µM] | IC50 ([2]; IC50 AChE, Ellman's assay) | also measured |
| --- | --- | --- | --- |
| O=C1c2ccccc2C(=O)N1CCCNC1CCN(Cc2ccccc2)CC1 [Compound 1, 2-(3-(1-Benzylpiperidin-4-ylamino)propyl)isoindoline-1,3-dione] | 18.2 | – | IC50 [1, 4]: 22.8 µM |
| O=C1c2ccccc2C(=O)N1CCCCCCNC1CCN(Cc2ccccc2)CC1 [Compound 2, 2-(6-(1-Benzylpiperidin-4-ylamino)hexyl)isoindoline-1,3-dione] | 53.7 | – | IC50 [1, 4]: 24.5 µM |
| O=C1c2ccccc2C(=O)N1CCCCCCNC1CCN(Cc2cccc(Cl)c2)CC1 [Compound 3, 2-(6-(1-(3-Chlorobenzyl)piperidin-4-ylamino)hexyl)isoindoline-1,3-dione] | 44 | – | IC50 [1]: 7.66 µM |
| O=C1c2ccccc2C(=O)N1CCCCCCNCc1ccccc1 [Compound 4, 2-(6-(Benzylamino)hexyl)isoindoline-1,3-dione] | 0.33 | 0.33 µM | – |
| O=C1c2ccccc2C(=O)N1CCCCCNCc1ccccc1 [Compound 5, 2-(5-(Benzylamino)pentyl)isoindoline-1,3-dione] | 0.17 | 0.17 µM | – |
| O=C1c2ccccc2C(=O)N1CCCCCNCc1ccccc1F [Compound 6, 2-(5-(2-fluorobenzylamino)pentyl)isoindoline-1,3-dione] | 0.0872 | 0.087 µM and 0.0872 µM | – |
| CCN(CC)CCCCCCCN1C(=O)c2ccccc2C1=O [Compound 8, 2-(7-diethylaminoheptyl)-isoindoline-1,3-dione] | – | – | IC50 [3, 6]: 1.07 µM; IC50 ([3]; read-out: IC50 AChE): 1.07 µM |
| CCN(CC)CCCCCCN1C(=O)c2ccccc2C1=O [Compound 9, 2-(6-diethylaminohexyl)-isoindoline-1,3-dione] | – | – | IC50 [3, 6]: 1.23 µM; IC50 ([3]; read-out: IC50 AChE): 1.23 µM |
